Results reported in the NIST ThermoML archive (doi:10.1016/j.fluid.2004.09.013).

Conditions: for mass density: Fluid (supercritical or subcritical phases), Vibrating tube method

C/C=C\C [(Z)-2-butene]
Conditions	Critical density [kg/m3]	mass density [kg/m3]
453.24 K, 29992 kPa	–	504.64
453.24 K, 34997 kPa	–	516.94
453.24 K, 39986 kPa	–	527.56
458.24 K, 5019 kPa	–	150.54
458.24 K, 9982 kPa	–	395.53
458.24 K, 14988 kPa	–	439.55
458.24 K, 20006 kPa	–	465.63
458.24 K, 24985 kPa	–	484.52
458.24 K, 30000 kPa	–	499.71
458.24 K, 34991 kPa	–	512.34
458.24 K, 39989 kPa	–	523.28
463.23 K, 39987 kPa	–	519.02
463.24 K, 5019 kPa	–	137.08
463.24 K, 9986 kPa	–	383.54
463.24 K, 14987 kPa	–	431.68
463.24 K, 20001 kPa	–	459.21
463.24 K, 24986 kPa	–	479.01
463.24 K, 29986 kPa	–	494.71
463.24 K, 34995 kPa	–	507.77
468.24 K, 5018 kPa	–	127.59
468.24 K, 10000 kPa	–	371.16
468.24 K, 14996 kPa	–	423.86
468.24 K, 20007 kPa	–	452.9
468.24 K, 24993 kPa	–	473.52
468.24 K, 29993 kPa	–	489.76
468.24 K, 34996 kPa	–	503.22
468.24 K, 40007 kPa	–	514.77
473.23 K, 5018 kPa	–	120.28
473.24 K, 9991 kPa	–	357.88
473.24 K, 14997 kPa	–	415.28
473.24 K, 20004 kPa	–	446.42
473.24 K, 25004 kPa	–	467.94
473.24 K, 30000 kPa	–	484.78
473.24 K, 34996 kPa	–	498.62
473.24 K, 39991 kPa	–	510.47
478.23 K, 14995 kPa	–	407.2
478.23 K, 19994 kPa	–	439.87
478.23 K, 25001 kPa	–	462.4
478.23 K, 35013 kPa	–	494.09
478.23 K, 39992 kPa	–	506.21
478.24 K, 5015 kPa	–	114.19
478.24 K, 9987 kPa	–	344.22
478.24 K, 29999 kPa	–	479.77
483.23 K, 5018 kPa	–	109.23
483.23 K, 19992 kPa	–	433.21
483.24 K, 10014 kPa	–	330.62
483.24 K, 14991 kPa	–	398.7
483.24 K, 25005 kPa	–	456.72
483.24 K, 29995 kPa	–	474.68
483.24 K, 34999 kPa	–	489.39
483.24 K, 39992 kPa	–	501.87
488.23 K, 5019 kPa	–	104.99
488.23 K, 19987 kPa	–	426.61
488.23 K, 25005 kPa	–	451.11
488.23 K, 29989 kPa	–	469.66
488.23 K, 34990 kPa	–	484.81
488.23 K, 39992 kPa	–	497.63
488.24 K, 10014 kPa	–	316.46
488.24 K, 15002 kPa	–	390.34
493.23 K, 5016 kPa	–	101.23
493.23 K, 9986 kPa	–	301.65
493.23 K, 14996 kPa	–	381.74
493.23 K, 19990 kPa	–	420.02
493.23 K, 24987 kPa	–	445.42
493.23 K, 29998 kPa	–	464.71
493.23 K, 35003 kPa	–	480.29
493.23 K, 40013 kPa	–	493.44
498.23 K, 5018 kPa	–	97.97
498.23 K, 9985 kPa	–	287.72
498.23 K, 14994 kPa	–	373.12
498.23 K, 19993 kPa	–	413.38
498.23 K, 24997 kPa	–	439.84
498.23 K, 29994 kPa	–	459.71
498.23 K, 35006 kPa	–	475.76
498.23 K, 40006 kPa	–	489.2
503.23 K, 5019 kPa	–	95.03
503.23 K, 10004 kPa	–	274.87
503.23 K, 14996 kPa	–	364.53
503.23 K, 20003 kPa	–	406.9
503.23 K, 24990 kPa	–	434.25
503.23 K, 29984 kPa	–	454.72
503.23 K, 34985 kPa	–	471.2
503.23 K, 39993 kPa	–	485.02
508.23 K, 5019 kPa	–	92.41
508.23 K, 9990 kPa	–	262
508.23 K, 15002 kPa	–	356.04
508.23 K, 19984 kPa	–	400.28
508.23 K, 25008 kPa	–	428.76
508.23 K, 29983 kPa	–	449.83
508.23 K, 35004 kPa	–	466.79
508.23 K, 40004 kPa	–	480.91
513.23 K, 5014 kPa	–	89.94
513.23 K, 9984 kPa	–	250.08
513.23 K, 14990 kPa	–	347.39
513.23 K, 19997 kPa	–	393.83
513.23 K, 25007 kPa	–	423.21
513.23 K, 29985 kPa	–	444.89
513.23 K, 35002 kPa	–	462.3
513.23 K, 40010 kPa	–	476.76
518.22 K, 5019 kPa	–	87.78
518.22 K, 14988 kPa	–	338.79
518.22 K, 25002 kPa	–	417.6
518.22 K, 30005 kPa	–	440.02
518.22 K, 39988 kPa	–	472.55
518.23 K, 9996 kPa	–	239.51
518.23 K, 20004 kPa	–	386.86
518.23 K, 34991 kPa	–	457.76
523.22 K, 5019 kPa	–	85.68
523.22 K, 9990 kPa	–	229.24
523.22 K, 14985 kPa	–	330.32
523.22 K, 25011 kPa	–	412.04
523.22 K, 29990 kPa	–	435.04
523.22 K, 34984 kPa	–	453.26
523.22 K, 40013 kPa	–	468.46
523.23 K, 20001 kPa	–	380.33
Liquid, visual observation in a variable volume cell:FP	238.12	–

Liquid
Conditions	Critical pressure [kPa]	Critical temperature [K]
–	4225.5	435.75
